The source of these data is article doi:10.1101/2021.05.19.444834v1 (bioRxiv, 2021).

For series [1], the system named is O-methyltransferase ThfM. In words: In vitro aspartimide formation by ThfM alone. In kind it is biochemical, Thermobifida fusca. To be noted: 10 μM substrate, 1 μM ThfM, 0.4 mM SAM, 100 mM sodium phosphate, 37 °C; LC-MS.
For series [2], the system named is ThfB and ThfM. Briefly: In vitro reconstitution with ThfB and ThfM together. In kind it is biochemical, Thermobifida fusca. The following applies: 10 μM ThfA, 1 μM ThfB, 1 μM ThfM, 0.4 mM SAM, ATP, no KCl, 37 °C; 5 h; LC-MS.

Regarding ThfA, the “modification by ThfM alone” value in series [1] is on record as “no reaction”. The “conversion to triply dehydrated product” value in series [2] is ~ 75%.
